Read-outs that look alike come from different tables or passages of the source.
Assays:
[1] = target: T1, HIV-1 RT-associated RNase H activity (Human immunodeficiency virus type 1 group M subtype B, UniProt P03366); experiment: biochemical; type: biochemical
T1 construct: His-tagged p66/p51 HIV-1 RT group M subtype B; His; made in house; host or cells: Escherichia coli M15
Procedure: (11) and β-thujaplicinol (BTP) used as positive controls.
His-tagged p66/p51 HIV-1 RT group M subtype B coded in a p6HRT-prot plasmid was expressed in the Escherichia coli strain M15.[65] Heterodimeric RTs were expressed essentially and purified as described.[66]
The HIV-1 RT-associated RNase H activity was measured as described.[68] Briefly, the reaction was carried out in a black 96-well plate in a total volume of 100 μL. […] Experiments were performed in duplicate and replicated at least two times. Data were analyzed as described.[36]

HIV-1 IN = HIV-1 IN (Human immunodeficiency virus type 1 group M subtype B, UniProt P12497); experiment: biochemical
Procedure: His-tagged NL4-3 IN was expressed from a pET15b plasmid in the E. coli BL21 pLys strain. Recombinant protein was purified as previously described[67] following a batch preparation on Ni-NTA beads (Qiagen, Paris, France).
Both oligonucleotides were purchased from Integrated DNA Technologies, Inc. (Coralville, IA), and the gel was purified in-house. ST reactions were performed by adding molecules or an equivalent volume of 100% dimethyl sulfoxide (DMSO, used as the drug solvent) to a mixture of 20 nM duplex DNA substrate and 400 nM IN in 50 mM MOPS pH 7.2, 7.5 mM MgCl2, and 14 mM 2-mercaptoethanol. Mixtures were incubated at 37 °C for 2 h, and the reaction was quenched by addition of an equal volume of loading buffer [formamide containing 1% sodium dodecyl sulfate (SDS), 0.25% bromophenol blue, and xylene cyanol]. […] Dried gels were visualized using a FLA5000 (Fuji Photo Film, Tokyo, Japan). Densitometric analyses were performed using ImageQuant 5.1 software from GE Healthcare.

HIV-1 replication = HIV-1 replication in HeLa-CD4-LTR-β-gal reporter cells; type: cell-based; settings: read-out: antiviral activity EC50
Procedure: (§1) HIV-1 replication was monitored using HeLa-CD4-LTR-β-gal reporter cells as previously described.[69] Briefly, β-galactosidase activity was monitored 24 h post infection using a replication-competent HIV produced in-house (H9-laï coculture) and a serial dilution of molecules or an equivalent volume of DMSO. In parallel, compounds’ toxicity was determined at 24 h in the same cell line using CellTiter 96 AQueous One Solution Cell Proliferation Assay (Promega, France).

[2] = Compounds' toxicity, CellTiter 96 AQueous One Solution Cell Proliferation Assay; type: cell-based; settings: human, HeLa-CD4-LTR-β-gal cells
Procedure: as §1

[3] = anti-RH activity (IC50 ± SD), HIV-1 RT-associated RNase H activity, dose-response curves, no preincubation
[4] = Human immunodeficiency virus 1, HeLa-CD4-LTR-β-gal cells, 24 h post infection
[5] = CC50 (cytotoxic concentration 50%), 24 h
[6] = HIV-1 RT-associated RNase H activity, dose-response curves, no preincubation
[7] = Human immunodeficiency virus 1, 24 h

SMILES: O=C(O)c1cn(Cc2ccc(F)cc2)c2ccccc2c1=O [4a, 1-(4-Fluorobenzyl)-4-oxo-1,4-dihydroquinoline-3-carboxylic Acid]
- IC50 [1, 3]: > 100 µM

SMILES: N#Cc1ccc2c(c1)c(=O)c(C(=O)O)cn2Cc1ccc(F)cc1 [4b, 6-Cyano-1-(4-fluorobenzyl)-4-oxo-1,4-dihydroquinoline-3-carboxylic Acid]
- IC50 [1, 3]: > 100 µM

SMILES: O=C(O)c1cn(Cc2ccc(F)cc2)c2ccc(C(F)(F)F)cc2c1=O [4c, 1-(4-Fluorobenzyl)-4-oxo-6-(trifluoromethyl)-1,4-dihydroquinoline-3-carboxylic Acid]
- IC50 [1, 3]: > 100 µM

SMILES: CC(=O)c1ccc2c(c1)c(=O)c(C(=O)O)cn2Cc1ccc(F)cc1 [4d, 6-Acetyl-1-(4-fluorobenzyl)-4-oxo-1,4-dihydroquinoline-3-carboxylic Acid]
- IC50 (HIV-1 IN): > 100 µM
- EC50 (HIV-1 replication; [4]): > 50 µM
- IC50 [1, 3]: 16.3 ± 1.42 µM
- CC50 at 24 h [2, 5]: > 200 µM
- CC50 at 24 h ([2]; supplement CSV, read-out: CC50): > 50 µM

SMILES: O=C(O)c1cn(Cc2ccc(F)cc2)c2ccc([N+](=O)[O-])cc2c1=O [4e, 1-(4-Fluorobenzyl)-6-nitro-4-oxo-1,4-dihydroquinoline-3-carboxylic Acid]
- IC50 [1, 3]: 56 ± 4 µM

SMILES: CS(=O)(=O)c1ccc2c(c1)c(=O)c(C(=O)O)cn2Cc1ccc(F)cc1 [4f, 1-(4-Fluorobenzyl)-6-(methylsulfonyl)-4-oxo-1,4-dihydroquinoline-3-carboxylic Acid]
- IC50 [1, 3]: 100 µM

SMILES: O=C(O)c1cn(Cc2ccc(F)cc2)c2ccc(O)cc2c1=O [4g, 1-(4-Fluorobenzyl)-6-hydroxy-4-oxo-1,4-dihydroquinoline-3-carboxylic Acid]
- IC50 [1, 3]: 74 ± 9 µM

SMILES: COc1ccc2c(c1)c(=O)c(C(=O)O)cn2Cc1ccc(F)cc1 [4h, 1-(4-Fluorobenzyl)-6-methoxy-4-oxo-1,4-dihydroquinoline-3-carboxylic Acid]
- anti-RH activity (IC50 ± SD) [1, 6]: no activity
- IC50 [1, 3]: > 100 µM

SMILES: O=C(O)c1cn(Cc2ccc(F)cc2)c2ccc(Oc3ccccc3)cc2c1=O [4i, 1-(4-Fluorobenzyl)-4-oxo-6-phenoxy-1,4-dihydroquinoline-3-carboxylic Acid]
- IC50 [1, 3]: 32 ± 11 µM

SMILES: CN(C)CCCOc1ccc2c(c1)c(=O)c(C(=O)O)cn2Cc1ccc(F)cc1 [4j, 6-(3-(Dimethylamino)propoxy)-1-(4-fluorobenzyl)-4-oxo-1,4-dihydroquinoline-3-carboxylic Acid]
- IC50 [1, 3]: 15.4 ± 3 µM

SMILES: O=C(O)c1cn(Cc2ccc(F)cc2)c2ccc(OCc3ccc4ccccc4c3)cc2c1=O [4p, 1-(4-Fluorobenzyl)-6-(naphthalen-2-ylmethoxy)-4-oxo-1,4-dihydroquinoline-3-carboxylic Acid]
- EC50 (HIV-1 replication; [4]): > 50 µM
- IC50 ([1]; RH IC50 (uM), supplement CSV): 30.3 ± 1.69 µM
- IC50 [1, 3]: 30.3 ± 1.7 µM
- CC50 at 24 h [2, 5]: > 200 µM
- CC50 at 24 h ([2]; supplement CSV, read-out: CC50): > 50 µM

SMILES: O=C(O)c1cn(Cc2ccc(F)cc2)c2ccc(OCCCCc3ccccc3)cc2c1=O [4r, 1-(4-Fluorobenzyl)-4-oxo-6-(4-phenylbutoxy)-1,4-dihydroquinoline-3-carboxylic Acid]
- EC50 (HIV-1 replication; [4]): > 50 µM
- IC50 [1, 3]: 8.27 ± 0.45 µM
- CC50 at 24 h [2, 5]: > 200 µM
- CC50 at 24 h ([2]; supplement CSV, read-out: CC50): > 50 µM

SMILES: CCOC(=O)c1cn(Cc2ccc(F)cc2)c2ccc(C#N)cc2c1=O [5b, Ethyl 6-Cyano-1-(4-fluorobenzyl)-4-oxo-1,4-dihydroquinoline-3-carboxylate]
- IC50 [1, 3]: > 100 µM

SMILES: CCOC(=O)c1cn(Cc2ccc(F)cc2)c2ccc(C(F)(F)F)cc2c1=O [5c, Ethyl 1-(4-Fluorobenzyl)-4-oxo-6-(trifluoromethyl)-1,4-dihydroquinoline-3-carboxylate]
- IC50 [1, 3]: 59 ± 5 µM

SMILES: CCOC(=O)c1cn(Cc2ccc(F)cc2)c2ccc(C(C)=O)cc2c1=O [5d, Ethyl 6-Acetyl-1-(4-fluorobenzyl)-4-oxo-1,4-dihydroquinoline-3-carboxylate]
- IC50 (HIV-1 IN): > 100 µM
- EC50 (HIV-1 replication; [4]): > 50 µM
- IC50 [1, 3]: 11 ± 1 µM
- CC50 at 24 h [2, 5]: > 200 µM
- CC50 at 24 h ([2]; supplement CSV, read-out: CC50): > 50 µM

SMILES: CCOC(=O)c1cn(Cc2ccc(F)cc2)c2ccc([N+](=O)[O-])cc2c1=O [5e, Ethyl 1-(4-Fluorobenzyl)-6-nitro-4-oxo-1,4-dihydroquinoline-3-carboxylate]
- IC50 [1, 3]: 47.8 ± 10 µM

SMILES: CCOC(=O)c1cn(Cc2ccc(F)cc2)c2ccc(S(C)(=O)=O)cc2c1=O [5f, Ethyl 1-(4-Fluorobenzyl)-6-(methylsulfonyl)-4-oxo-1,4-dihydroquinoline-3-carboxylate]
- IC50 [1, 3]: > 100 µM

SMILES: CCOC(=O)c1cn(Cc2ccc(F)cc2)c2ccc(O)cc2c1=O [5g, Ethyl 1-(4-Fluorobenzyl)-6-hydroxy-4-oxo-1,4-dihydroquinoline-3-carboxylate]
- IC50 [1, 3]: > 100 µM

SMILES: CCOC(=O)c1cn(Cc2ccc(F)cc2)c2ccc(OC)cc2c1=O [5h, Ethyl 1-(4-Fluorobenzyl)-6-methoxy-4-oxo-1,4-dihydroquinoline-3-carboxylate]
- anti-RH activity (IC50 ± SD) [1, 6]: no activity
- IC50 [1, 3]: > 100 µM

SMILES: CCOC(=O)c1cn(Cc2ccc(F)cc2)c2ccc(Oc3ccccc3)cc2c1=O [5i, Ethyl 1-(4-Fluorobenzyl)-4-oxo-6-phenoxy-1,4-dihydroquinoline-3-carboxylate]
- IC50 [1, 3]: 45.5 ± 1.5 µM

SMILES: CCOC(=O)c1cn(Cc2ccc(F)cc2)c2ccc(OCCCN(C)C)cc2c1=O [5j, Ethyl 6-(3-(Dimethylamino)propoxy)-1-(4-fluorobenzyl)-4-oxo-1,4-dihydroquinoline-3-carboxylate]
- IC50 [1, 3]: > 100 µM

SMILES: CCOC(=O)c1cn(Cc2ccc(F)cc2)c2ccc(/C=C/C(=O)c3ccccc3)cc2c1=O [5k, (E)-Ethyl 1-(4-Fluorobenzyl)-4-oxo-6-(3-oxo-3-phenylprop-1-en-1-yl)-1,4-dihydroquinoline-3-carboxylate]
- EC50 (HIV-1 replication; [4]): > 50 µM
- IC50 [1, 3]: 15.3 ± 1.6 µM
- CC50 at 24 h [2, 5]: > 100 µM

SMILES: CCOC(=O)c1cn(Cc2ccc(F)cc2)c2ccc(OCc3ccccc3)cc2c1=O [5l, Ethyl 6-(Benzyloxy)-1-(4-fluorobenzyl)-4-oxo-1,4-dihydroquinoline-3-carboxylate]
- EC50 (HIV-1 replication; [4]): > 100 µM
- IC50 [1, 3]: 8 ± 1.6 µM
- CC50 at 24 h [2, 5]: > 100 µM

SMILES: CCOC(=O)c1cn(Cc2ccc(F)cc2)c2ccc(OCc3cccc4ccccc34)cc2c1=O [5o, Ethyl 1-(4-Fluorobenzyl)-6-(naphthalen-1-ylmethoxy)-4-oxo-1,4-dihydroquinoline-3-carboxylate]
- EC50 (HIV-1 replication; [7]): > 100 µM
- IC50 [1, 3]: 1.49 ± 0.33 µM
- CC50 at 24 h [2, 5]: > 100 µM

SMILES: CCOC(=O)c1cn(Cc2ccc(F)cc2)c2ccc(OCc3ccc4ccccc4c3)cc2c1=O [5p, Ethyl 1-(4-Fluorobenzyl)-6-(naphthalen-2-ylmethoxy)-4-oxo-1,4-dihydroquinoline-3-carboxylate]
- EC50 (HIV-1 replication; [4]): > 50 µM
- IC50 [1, 3]: 19.6 µM
- CC50 at 24 h [2, 5]: 73 ± 24 µM
- CC50 at 24 h ([2]; supplement CSV, read-out: CC50): > 50 µM

SMILES: CCOC(=O)c1cn(Cc2ccc(F)cc2)c2ccc(OCc3ccc4c(c3)OCO4)cc2c1=O [5q, Ethyl 6-(Benzo[d][1,3]dioxol-5-ylmethoxy)-1-(4-fluorobenzyl)-4-oxo-1,4-dihydroquinoline-3-carboxylate]
- IC50 [1, 3]: 55.3 ± 1.7 µM

SMILES: CCOC(=O)c1cn(Cc2ccc(F)cc2)c2ccc(OCCCCc3ccccc3)cc2c1=O [5r, Ethyl 1-(4-Fluorobenzyl)-4-oxo-6-(4-phenylbutoxy)-1,4-dihydroquinoline-3-carboxylate]
- EC50 (HIV-1 replication; [4]): > 16 µM
- IC50 ([1]; RH IC50 (uM), supplement CSV): 28.4 ± 4.3 µM
- IC50 [1, 3]: 28.4 ± 4.3 µM
- CC50 at 24 h [2, 5]: > 200 µM
- CC50 at 24 h ([2]; supplement CSV, read-out: CC50): > 50 µM

SMILES: CCOC(=O)c1cn(Cc2ccc(F)cc2)c2ccc(OCc3ccc(-c4ccccc4)cc3)cc2c1=O [5s, Ethyl 6-([1,1′-Biphenyl]-4-ylmethoxy)-1-(4-fluorobenzyl)-4-oxo-1,4-dihydroquinoline-3-carboxylate]
- IC50 [1, 3]: > 100 µM

SMILES: CCOC(=O)c1cn(Cc2ccc(F)cc2)c2ccc(OCc3ccc(OCc4ccccc4)cc3)cc2c1=O [5t, Ethyl 6-((4-(Benzyloxy)benzyl)oxy)-1-(4-fluorobenzyl)-4-oxo-1,4-dihydroquinoline-3-carboxylate]
- IC50 [1, 3]: > 100 µM

SMILES: CC(C)c1ccc(O)c(=O)c(O)c1 [BTP, β-thujaplicinol, reference compound]
- IC50 [1, 3]: 0.19 ± 0.03 µM

SMILES: CCOC(=O)/C=C/C(=O)/C=C/c1cccn1Cc1ccccc1Cl [compound 11, reference compound]
- IC50 (HIV-1 IN): > 100 µM
- EC50 (HIV-1 replication; [7]): 2.9 ± 0.5 µM
- IC50 [1, 3]: 7.5 ± 1.32 µM
- CC50 at 24 h [2, 5]: 68 ± 10 µM

Reference: article PMC8279492, “Quinolinonyl Non-Diketo Acid Derivatives as Inhibitors of HIV-1 Ribonuclease H and Polymerase Functions of Reverse Transcriptase” (Journal of Medicinal Chemistry, 2021)
